Reference: patent US20150051252A1, “COMPOUNDS FOR USE IN THE TREATMENT OF NEUROBLASTOMA, EWING'S SARCOMA OR RHABDOMYOSARCOMA” (priority 2012, published 2015)

Legend:
Type in all cases: cell-based
[1] = test system: IMR-32 neuroblastoma cell line; test: Cell line sensitivity (Cell Titer Glo), IMR-32; settings: IMR-32 cells, 72 h, maximum observed response; 0% = vehicle, −100% = MG132 1 μM
Method: (§1) Cell culture: Cell lines are obtained from commercial sources including ATCC and DSMZ. All cell lines tested are cultured in RPMI or DMEM plus 10% FBS (Invitrogen) as supplier recommended. Cell lines are cultured in T-175 or 3 layer T-175 “triple” flasks using standard tissue culture techniques that are frequently carried out with a robot (CompacT—The Automation Partnership). All cell lines are thawed from frozen stock, grown at 37 C 5% CO2. Adherent lines are dislodged using TrypLE (Invitrogen), are expanded through at least 1 passage of 1:3 dilution and usually 2 to 3 passages before they are added to assay micro-titer plates. Cell count and viability are measured using Trypan dye exclusion with a ViCell counter (Beckman-Coulture). All cell lines are tested for and shown to be free of Mycoplasma using a PCR detection (http://www.radil.missouri.edu). […]
(§2) All assays are automated and are performed with an ultra-high throughput screening system built by the Genomics Institute of the Novartis Research Foundation (GNF Systems; http://www.gnfsystems.com/). […] Cell Titer Glo (Promega), which measures the amount of ATP in the well, is added and luminescence is read on a ViewLux plate reader (Perkin Elmer). […]

[2] = test system: SJRH30 rhabdomyosarcoma cell line; test: Cell line sensitivity (Cell Titer Glo), SJRH30; settings: SJRH30 cells, 72 h
Method: as §1, §2

[3] = test system: KYM-1 rhabdomyosarcoma cell line; test: Cell line sensitivity (Cell Titer Glo), KYM-1; settings: KYM-1 cells, 72 h, maximum observed response; 0% = vehicle, −100% = MG132 1 μM
Method: as §1, §2

[4] = test system: Hs 729 rhabdomyosarcoma cell line; test: Cell line sensitivity (Cell Titer Glo), Hs 729; settings: Hs 729 cells, 72 h, maximum observed response; 0% = vehicle, −100% = MG132 1 μM
Method: as §1, §2

[5] = test system: SIMA neuroblastoma cell line; test: Cell line sensitivity (Cell Titer Glo), SIMA; settings: SIMA cells, 72 h, maximum observed response; 0% = vehicle, −100% = MG132 1 μM
Method: as §1, §2

[6] = test system: SK-N-DZ neuroblastoma cell line; test: Cell line sensitivity (Cell Titer Glo), SK-N-DZ; settings: SK-N-DZ cells, 72 h
Method: as §1, §2

[7] = test system: KELLY neuroblastoma cell line; test: Cell line sensitivity (Cell Titer Glo), KELLY; settings: KELLY cells, 72 h, maximum observed response; 0% = vehicle, −100% = MG132 1 μM
Method: as §1, §2

[8] = test system: G-401 (Rhabdoid) cell line; test: Cell line sensitivity (Cell Titer Glo), G-401; settings: G-401 cells, 72 h, maximum observed response; 0% = vehicle, −100% = MG132 1 μM
Method: as §1, §2

[9] = test system: RD rhabdomyosarcoma cell line; test: Cell line sensitivity (Cell Titer Glo), RD; settings: RD cells, 72 h
Method: as §1, §2

[10] = test system: SK-N-BE(2) neuroblastoma cell line; test: Cell line sensitivity (Cell Titer Glo), SK-N-BE(2); settings: SK-N-BE(2) cells, 72 h, maximum observed response; 0% = vehicle, −100% = MG132 1 μM
Method: as §1, §2

[11] = test system: SK-N-SH neuroblastoma cell line; test: Cell line sensitivity (Cell Titer Glo), SK-N-SH; settings: SK-N-SH cells, 72 h
Method: as §1, §2

[12] = test system: SK-N-FI neuroblastoma cell line; test: Cell line sensitivity (Cell Titer Glo), SK-N-FI; settings: SK-N-FI cells, 72 h
Method: as §1, §2

[13] = test system: TE 125.T rhabdomyosarcoma cell line; test: Cell line sensitivity (Cell Titer Glo), TE 125.T; settings: TE 125.T cells, 72 h, maximum observed response; 0% = vehicle, −100% = MG132 1 μM
Method: as §1, §2

[14] = test system: CHP-212 neuroblastoma cell line; test: Cell line sensitivity (Cell Titer Glo), CHP-212; settings: CHP-212 cells, 72 h
Method: as §1, §2

[15] = test system: SK-N-AS neuroblastoma cell line; test: Cell line sensitivity (Cell Titer Glo), SK-N-AS; settings: SK-N-AS cells, 72 h, maximum observed response; 0% = vehicle, −100% = MG132 1 μM
Method: as §1, §2

[16] = test system: A-673 rhabdomyosarcoma cell line; test: Cell line sensitivity (Cell Titer Glo), A-673; settings: A-673 cells, 72 h
Method: as §1, §2

[17] = test system: RH-41 rhabdomyosarcoma cell line; test: Cell line sensitivity (Cell Titer Glo), RH-41; settings: RH-41 cells, 72 h
Method: as §1, §2

[18] = test system: G-402 (Leiomyoblastoma) cell line; test: Cell line sensitivity (Cell Titer Glo), G-402; settings: G-402 cells, 72 h, maximum observed response; 0% = vehicle, −100% = MG132 1 μM
Method: as §1, §2

[19] = test system: SK-ES-1 Ewing's Sarcoma cell line; test: Cell line sensitivity (Cell Titer Glo), SK-ES-1; settings: SK-ES-1 cells, 72 h
Method: as §1, §2

[20] = test system: MHH-ES-1 Ewing's Sarcoma cell line; test: Cell line sensitivity (Cell Titer Glo), MHH-ES-1; settings: 72 h
Method: as §1, §2

[21] = test system: TC-71 Ewing's Sarcoma cell line; test: Cell line sensitivity (Cell Titer Glo), TC-71; settings: TC-71 cells, 72 h
Method: as §1, §2

[22] = test system: Hs 822.T Ewing's Sarcoma cell line; test: Cell line sensitivity (Cell Titer Glo), Hs 822.T; settings: Hs 822.T cells, 72 h
Method: as §1, §2

[23] = test system: KP-N-SI9s neuroblastoma cell line; test: Cell line sensitivity (Cell Titer Glo), KP-N-SI9s; settings: 72 h
Method: as §1, §2

[24] = test system: TE 617.T rhabdomyosarcoma cell line; test: Cell line sensitivity (Cell Titer Glo), TE 617.T; settings: TE 617.T cells, 72 h
Method: as §1, §2

[25] = Cell Titer Glo, inflection point, 0.0025 to 8 uM, read-out: COMPOUND I EC50
[26] = maximum observed response, 0% = vehicle, −100% = MG132 1 μM

EC50 [2, 25]: 2800 nM | EC50 [6, 25]: 5300 nM | EC50 [9, 25]: 3300 nM | EC50 [11, 25]: 1600 nM | EC50 [12, 25]: 6100 nM | EC50 [14, 25]: 800 nM | EC50 [16, 25]: 5700 nM | EC50 [17, 25]: 1600 nM | EC50 [19, 25]: 500 nM | EC50 ([20]; MHH-ES-1 cells (amplified PIK3CA), Cell Titer Glo, inflection point, 0.0025 to 8 uM, read-out: COMPOUND I EC50): 2700 nM | EC50 ([21]; read-out: COMPOUND I EC50, Cell Titer Glo, inflection point, 0.0025 to 8 uM, heading: COMPOUND I EC50): > 8000 nM | EC50 [22, 25]: 1500 nM | EC50 ([23]; KP-N-SI9s cells (KRAS mutation), Cell Titer Glo, inflection point, 0.0025 to 8 uM, read-out: COMPOUND I EC50): 600 nM | EC50 [24, 25]: 3800 nM
SMILES: Cc1nc(NC(=O)N2CCC[C@H]2C(N)=O)sc1-c1ccnc(C(C)(C)C(F)(F)F)c1 [COMPOUND I, (S)-Pyrrolidine-1,2-dicarboxylic acid 2-amide 1-({4-methyl-5-[2-(2,2,2-trifluoro-1,1-dimethyl-ethyl)-pyridin-4-yl]-thiazol-2-yl}-amide)]
COMPOUND I Amax (% inhibition) [1]: −8.9% | COMPOUND I Amax (% inhibition) [2, 26]: −56.5% | COMPOUND I Amax (% inhibition) [3]: −38.0% | COMPOUND I Amax (% inhibition) [4]: −10.2% | COMPOUND I Amax (% inhibition) [5]: −42.0% | COMPOUND I Amax (% inhibition) [6, 26]: −42.4% | COMPOUND I Amax (% inhibition) [7]: −4.3% | COMPOUND I Amax (% inhibition) [8]: −46.6% | COMPOUND I Amax (% inhibition) [9, 26]: −43.2% | COMPOUND I Amax (% inhibition) [10]: −8.7% | COMPOUND I Amax (% inhibition) [11, 26]: −44.6% | COMPOUND I Amax (% inhibition) [12, 26]: −55.6% | COMPOUND I Amax (% inhibition) [13]: −49.8% | COMPOUND I Amax (% inhibition) [14, 26]: −30.9% | COMPOUND I Amax (% inhibition) [15]: −11.6% | COMPOUND I Amax (% inhibition) [16, 26]: −56.2% | COMPOUND I Amax (% inhibition) [17, 26]: −85.4% | COMPOUND I Amax (% inhibition) [18]: −26.4% | COMPOUND I Amax (% inhibition) [19, 26]: −51.7% | COMPOUND I Amax (% inhibition) ([20]; MHH-ES-1 cells, maximum observed response, 0% = vehicle, −100% = MG132 1 μM): −79.2% | COMPOUND I Amax (% inhibition) [21, 26]: −5.4% | COMPOUND I Amax (% inhibition) [22, 26]: −31.6% | COMPOUND I Amax (% inhibition) ([23]; KP-N-SI9s cells, maximum observed response, 0% = vehicle, −100% = MG132 1 μM): −54.2% | COMPOUND I Amax (% inhibition) [24, 26]: −55.2%
